Publication PMC8425881, “De Novo Design of Peptidic Positive Allosteric Modulators Targeting TRPV1 with Analgesic Effects” (Advanced Science, 2021)

Target: T1, Murine TRPV1 (Mus musculus, UniProt Q704Y3)
T1 construct: full-length channel, eYFP fused to C terminus (pEYFP-N3), expressed in HEK293T; cDNA gift of Michael X. Zhu; homotetramer
Test: whole-cell patch clamp, Hill fit
Assay type: cell-based

T1 sequence (Q704Y3 whole entry, the tested form may be a part): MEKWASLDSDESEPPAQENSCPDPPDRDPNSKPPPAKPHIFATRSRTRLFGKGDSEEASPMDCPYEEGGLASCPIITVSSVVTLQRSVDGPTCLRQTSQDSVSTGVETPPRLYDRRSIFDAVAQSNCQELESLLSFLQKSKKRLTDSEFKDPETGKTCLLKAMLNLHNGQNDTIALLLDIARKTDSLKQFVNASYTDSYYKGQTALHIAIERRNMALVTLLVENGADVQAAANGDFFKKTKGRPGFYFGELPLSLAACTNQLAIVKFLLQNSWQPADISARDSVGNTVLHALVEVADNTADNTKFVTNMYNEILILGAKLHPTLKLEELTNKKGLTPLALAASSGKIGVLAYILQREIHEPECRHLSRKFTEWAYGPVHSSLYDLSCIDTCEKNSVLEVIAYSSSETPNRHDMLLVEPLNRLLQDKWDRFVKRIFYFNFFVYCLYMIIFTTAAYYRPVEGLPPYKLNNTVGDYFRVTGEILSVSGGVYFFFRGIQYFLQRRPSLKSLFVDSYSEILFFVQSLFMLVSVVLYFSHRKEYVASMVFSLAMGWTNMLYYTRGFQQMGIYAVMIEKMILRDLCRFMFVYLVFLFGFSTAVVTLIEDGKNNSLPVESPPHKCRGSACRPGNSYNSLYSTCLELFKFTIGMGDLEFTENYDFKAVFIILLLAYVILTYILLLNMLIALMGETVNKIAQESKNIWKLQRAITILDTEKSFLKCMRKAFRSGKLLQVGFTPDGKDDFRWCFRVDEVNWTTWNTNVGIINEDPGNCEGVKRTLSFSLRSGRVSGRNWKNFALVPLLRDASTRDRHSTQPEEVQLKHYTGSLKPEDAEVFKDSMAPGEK

## COc1cc(CNC(=O)CCCC/C=C/C(C)C)ccc1O [capsaicin]
  EC50: 186 nM
